Test results as given in US12280059B2, “Acyl-CoA synthetase 4 (ACSL4) inhibitory compound” (CONSEJO NACIONAL DE INVESTIGACIONES CIENTÍFICAS Y TÉCNICAS …, priority 2019, dated 2025).

How the values were obtained:
MDA-MB-231 cells [1] = assay: Migration assay (wound healing); assay type: cell-based, human; conditions: for concentration at which differences in wound area were evident: wound healing, 12 h after injury
Protocol: Cellular migration was measured by the wound healing assay. Cells (7×10^5 cells per well) were seeded in six-well plates. Cells were kept in complete (10% FBS) medium. Cell monolayer was wounded with a plastic tip across the monolayer cells. Wound closures were photographed by a phase contrast microscopy (40×) in the time point 4, 8 and 12 h after scraping. The width of the wound was determined with the Image Pro-Plus program.
For the wound healing assay, cells were incubated with either vehicle (control), the compound of the invention (inhibitor A) (50 μM) and Rosiglitazone (200 μM). At the specified time points, the distance between the wound edges was measured using Image-Pro Plus software. Results are shown in FIG. 4A-D. Data represent the mean±SD of three independent experiments.

MDA-MB-231 cells [2] = assay: Cell proliferation inhibition in breast cancer cell line, BrdU incorporation assay; assay type: cell-based; conditions: Homo sapiens, 96 h incubation
Source text: In this experiment, ACSL4 inhibition was studied through proliferation inhibition of MDA-MB-231 cells. Human breast cancer cell line MDA-MB-231 was generously provided by Dr. Vasilios Papadoupoulus (Research Institute of the McGill University Health Centre, Montreal, Canada) and obtained from the Lombardi Comprehensive Cancer Center (Georgetown University Medical Center, Washington D.C. USA), validated by ATCC Cell Line Authentication Service as 100% matching to ATCC cell line HTB-26 (MDA-MB-231).
The medium was then changed to serum-free medium.
After 24 h, the cells were switched to 10% FBS-supplemented D-MEM medium and incubated with i) ACSL4 inhibitor A, ii) ACSL4 inhibitor B or iii) rosiglitazone for 96 h.

PC-3 cells = assay: Cell proliferation inhibition in prostate cancer cell line, BrdU incorporation assay; assay type: cell-based; conditions: Homo sapiens, 96 h incubation
Protocol: ACSL4 inhibition was also assessed through proliferation inhibition in the Pc-3 cell line. PC-3 human prostate cancer cell line was generously provided by Dr. Susana Nowicky and validated by ATCC Cell Line Authentication Service as 100% matching to ATCC cell line CRL-1435 (PC-3).
The medium was then changed to serum-free medium. After 24 h, the cells were switched to 10% FBS-supplemented D-MEM medium and incubated with i) ACSL4 inhibitor A, ii) ACSL4 inhibitor B or iii) rosiglitazone for 96 h.

ACSL4 [3] = target: T1, ACSL4 (Mus musculus, UniProt Q9QUJ7); assay: 3H-arachidonic acid incorporation into MA-10 Leydig cells (ACSL4 activity); assay type: cell-based; conditions: cAMP stimulated
T1 construct: evaluated in MA-10 Leydig cells, in which ACSL4 activity plays a key role in steroids synthesis; endogenous in cells; host or cells: MA-10 mouse Leydig tumor cells
Protocol: The effects of the ACSL4 inhibitor of the invention were evaluated in MA-10 Leydig cells, in which ACSL4 activity plays a key role in steroids synthesis.
(§1) ACSL4 activity was determined by measuring the transformation of arachidonic acid (AA) into enzyme product arachidonoyl-CoA (AA CoA), through ^3H-AA incorporation expressed as CPM/10^6 cells×10^−3 with results showing significant ACSL4 inhibition and a consequent significant reduction in AA CoA levels.
ACSL4 activity was stimulated with cAMP.

steroid synthesis = assay: Steroidogenesis in male mice stimulated with hCG; assay type: in vivo, BALB/c mice
Protocol: Thirty-day-old male BALB/c mice were treated with inhibitor A (10-100 μM) i.p at a dose of 50 ul/mice. After 3 hours the animal received a single s.c injection of human Chorionic Gonadotrophin (300 U/mice). After 3 hours the animal were sacrificed and assessed for testosterone, pregnenolone and progesterone levels FIG. 13 A, corticosterone FIG. 13 B and steroids in Pc-3 cell FIG. 13 C.

MDA-MB231 cells = assay: Tumor growth in chick embryo chorioallantoic membrane (CAM) assay; assay type: in vivo; conditions: 100 μM, in ovo, Kruskal-Wallis p<0.0001
Protocol: In this experiment, the in vivo CAM assay platform of IPATIMUP was used to test the effect of inhibitor A to inhibit tumor growth in vivo. The CAMP is a preclinical in vivo model for drug screening.
Chicken eggs in the early phase of breeding are between in vitro and in vivo systems and provide a vascular test environment not only to study angiogenesis but also to study tumorigenesis. Since the lymphoid system is not fully developed until late stages of incubation, the chick embryo serves as a naturally immunodeficient host capable of sustaining grafted tissues and cells without species-specific restrictions.
As previously described, breast cancer MDA-MB231 cell line was used as a cell model to assess tumor cell growth. The effects of the compound were compared to those of the vehicle (DMEM).
The test compound, at the 10 μM and 100 μM, were inoculated together with 0.5×10^6 MDA-MB231 cells into a total of 53 eggs (distributed in two independent experiments), at embryonic development day (EDD) 10. The effects of the compound A were compared to those of the vehicle (DMEM).
Xenografted cells/tumors were treated in ovo on EDD12 and the experiment ended at EDD 14. At the endpoint, CAMs were fixed (with paraformaldehyde), excised from the embryo and photographed ex ovo.
The pictures were used to determine the number of neo vessels growing radially towards the inoculation site. […]

Solubility = assay type: physicochemical; conditions: compared with compound B
MA-10 Leydig cells = assay: Steroidogenesis assay, progesterone production in cAMP-stimulated MA-10 Leydig cells; assay type: cell-based, mouse
Protocol: (§2) In the present example, ACSL4 inhibitor effects on steroid production were tested by stimulating MA 10 Leydig and Y1 adrenal cells with cAMP (0.5 mM) for 1 hour and assessing progesterone levels. MA-10 mouse Leydig tumor cells were generously provided by Dr. Mario Ascoli (University of Iowa, Iowa City, Iowa) and cultured in Waymouth MB/752 medium supplemented with 15% horse serum and antibiotics at 37° C. and 5% CO2 as previously described. The culture medium was replaced with serum-free Waymouth medium before experiments.

ACSL4 [4] = target: T2, ACSL4 (Homo sapiens, UniProt O60488); assay: 3H-arachidonic acid incorporation into MDA-MB-231 cells (ACSL4 activity); assay type: cell-based; conditions: serum stimulated
T2 construct: evaluated in MDA-MB-231 cells, in which ACSL4 activity plays a key role in tumor biology; endogenous in cells; host or cells: MDA-MB-231
Protocol: The effects of the ACSL4 inhibitor of the invention were evaluated in MDA-MB-231 cells, in which ACSL4 activity plays a key role in tumor biology.
as §1
ACSL4 activity was stimulated with serum in tumoral cells.

Y1 adrenal cells = assay: Steroidogenesis assay, progesterone production in cAMP-stimulated Y1 adrenal cells; assay type: cell-based, mouse; conditions: cAMP 0.5 mM, 1 hour
Protocol: as §2
Murine Y1 adrenocortical tumor cells were generously provided by Dr B Schimmer (University of Toronto, Toronto, Canada). Methods for the culture of Y1 mouse adrenal tumor cells (American Type Culture Collection, Rockville, MD, USA) have been published elsewhere (Schimmer 1979). Cells were maintained at 37 C in growth medium (HAM F10) containing fetal bovine (2·5%) and horse (12·5%) sera.

T2 sequence (O60488 whole entry): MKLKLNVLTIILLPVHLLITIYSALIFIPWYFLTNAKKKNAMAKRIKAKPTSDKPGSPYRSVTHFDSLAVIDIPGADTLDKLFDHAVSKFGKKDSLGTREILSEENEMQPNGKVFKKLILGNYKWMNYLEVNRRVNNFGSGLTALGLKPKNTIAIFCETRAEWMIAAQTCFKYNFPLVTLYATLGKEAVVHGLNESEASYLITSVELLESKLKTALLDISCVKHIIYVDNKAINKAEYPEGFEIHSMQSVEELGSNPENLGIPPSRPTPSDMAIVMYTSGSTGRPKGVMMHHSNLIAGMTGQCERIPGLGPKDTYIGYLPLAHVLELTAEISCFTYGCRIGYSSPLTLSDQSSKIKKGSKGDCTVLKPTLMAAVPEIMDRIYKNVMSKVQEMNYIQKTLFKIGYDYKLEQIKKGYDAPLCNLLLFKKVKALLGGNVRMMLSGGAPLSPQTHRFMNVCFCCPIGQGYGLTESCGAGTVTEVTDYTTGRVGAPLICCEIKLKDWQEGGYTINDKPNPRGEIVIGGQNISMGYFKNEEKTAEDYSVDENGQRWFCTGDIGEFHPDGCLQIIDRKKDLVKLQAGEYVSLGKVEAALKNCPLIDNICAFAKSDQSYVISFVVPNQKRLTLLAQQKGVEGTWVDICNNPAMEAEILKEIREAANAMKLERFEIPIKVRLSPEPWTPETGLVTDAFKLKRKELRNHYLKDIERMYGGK
T1 sequence (Q9QUJ7 whole entry): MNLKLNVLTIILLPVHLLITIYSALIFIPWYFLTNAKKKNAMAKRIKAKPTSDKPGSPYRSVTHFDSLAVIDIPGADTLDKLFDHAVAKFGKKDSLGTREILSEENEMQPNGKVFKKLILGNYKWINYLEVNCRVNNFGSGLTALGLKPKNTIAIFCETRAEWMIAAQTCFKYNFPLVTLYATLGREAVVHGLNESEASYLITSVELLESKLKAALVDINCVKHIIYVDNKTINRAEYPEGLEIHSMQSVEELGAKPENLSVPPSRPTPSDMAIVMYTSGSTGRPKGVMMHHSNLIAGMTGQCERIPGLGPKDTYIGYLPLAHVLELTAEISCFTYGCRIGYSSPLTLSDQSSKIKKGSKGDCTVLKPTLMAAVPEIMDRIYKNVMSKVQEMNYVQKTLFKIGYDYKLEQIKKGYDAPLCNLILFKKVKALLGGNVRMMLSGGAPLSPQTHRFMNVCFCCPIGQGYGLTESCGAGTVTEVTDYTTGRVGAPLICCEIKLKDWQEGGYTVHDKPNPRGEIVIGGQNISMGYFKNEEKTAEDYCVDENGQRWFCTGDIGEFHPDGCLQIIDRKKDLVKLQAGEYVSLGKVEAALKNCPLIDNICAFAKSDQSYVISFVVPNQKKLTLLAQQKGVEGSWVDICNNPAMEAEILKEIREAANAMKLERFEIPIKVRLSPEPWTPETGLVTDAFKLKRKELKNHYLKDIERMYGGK

SMILES | concentration at which differences in wound area were evident (MDA-MB-231 cells [1]) [µM] | IC50 (MDA-MB-231 cells [2]) [µM] | IC50 (PC-3 cells) [µM] | inhibition of cell migration (wound healing) (MDA-MB-231 cells [1]; MDA-MB-231 cells, 50 μM) | concentrations for inhibiting ACSL4 activity (3H-AA incorporation) (ACSL4 [3]) | minimal concentration significantly inhibiting steroid synthesis (steroid synthesis; i.p. 50 ul/mice, hCG stimulation (Example 12)) [µM] | dose at which there was already response in inhibiting steroidogenesis (steroid synthesis; in vivo experiment in mice, FIG. 13 A) [µM] | tumor growth (tumor area) versus vehicle (MDA-MB231 cells) | solubility (Solubility) | minimal concentration significantly inhibiting steroid synthesis (MA-10 Leydig cells; cAMP 0.5 mM, 1 hour, progesterone) [µM] | concentrations for inhibiting ACSL4 activity (3H-AA incorporation) (ACSL4 [4]) | minimal concentration significantly inhibiting steroid synthesis (Y1 adrenal cells) [µM] | inhibition of progesterone synthesis (MA-10 Leydig cells) | release of progesterone (MA-10 Leydig cells; 10 μM, control 3.26 ng/ml) [ng/mL]
CN(CCOc1ccc(CC2SC(=O)NC2=O)cc1)c1ccccn1 (centres unmarked) [Rosiglitazone, reference compound] | 200 | 180 | 100 |  |  |  |  |  |  |  |  |  |  | 
CC(=O)NC1=Nc2nc3ccccc3n2C(c2cn(-c3ccccc3)nc2-c2ccc(C)o2)N1 (centres unmarked) [inhibitor A, N-(4-(3-(5-methylfuran-2-yl)-1-phenyl-1H-pyrazol-4-yl)-3,4-dihydrobenzo[4,5]imidazo[1,2-a][1,3,5]triazin-2-yl)acetamide] | 50 | 23 | 27 | succeeded in inhibiting the migration | lower than those required for rosiglitazone | 25 | 10 | Significant statistical differences | higher than the solubility of compound B | 5 | lower than those required for rosiglitazone | 5 |  | 
Cc1ccc(-c2nn(-c3ccccc3)cc2C2NC(N)=Nc3nc4ccccc4n32)o1 (centres unmarked) [inhibitor B, 4-(3-(5-methylfuran-2-yl)-1-phenyl-1H-pyrazol-4-yl)-3,4-dihydrobenzo[4,5]imidazo[1,2-a][1,3,5]triazin-2-amine] | 100 | 45 | 48 |  |  |  |  |  |  |  |  |  |  | 
CCC/C=C/C/C=C/C=C/C=N/NN=O [Triacsin C] |  |  |  |  |  |  |  |  |  |  |  |  | failed to inhibit progesterone synthesis | 46.5
